{"source": "paper PMC10406450", "about": "(Frontiers in Endocrinology, 2023)", "tested_on": "CHO-hGLP-1R cells", "assay": "Cell viability assay (resazurin)", "format": "cell-based, Chinese hamster", "conditions": "48 h treatment, then 5 h resazurin dye, fluorescence 590 nm, concentrations up to 1000-fold above the EC50, 3 independent experiments", "protocol": "CHO-hGLP-1R cells described above were plated at 10 000 cells per well in 96-well black clear-bottom poly-d-lysine-coated microtiter plates (Corning, USA). Growth medium comprised DMEM supplemented with 10% FBS (Sigma-Aldrich). […] Fluorescence emission was measured at 590 nm (560 nm excitation) using an Envision plate reader (Perkin Elmer, USA)."}
{"compound": "CN[C@@H]1C[C@H]2O[C@@](C)([C@@H]1OC)n1c3ccccc3c3c4c(c5c6ccccc6n2c5c31)C(=O)NC4", "note": "[staurosporine]", "values": [{"measurement": "cytotoxicity (cell viability)", "result": "expected effect on loss of cell viability"}]}
